Experimental data taken from patent publication US8269026B2, “Lupane derivatives useful for treating HIV” (priority 2008, dated 2012).
Where two headings read alike, the source gives them in different places.

Test system: HIV-1 (HIVIIIB) replication in MT2 cell line
Test: HIV-1 replication in MT2 cell line with and without 30% human serum (viral RT activity in supernatant)
Type: cell-based
Conditions: Human immunodeficiency virus 1, MT2 cells, average IC50 if tested more than once
Description: HIV-1 Replication in MT2 cell line with and without 30% human serum: The cells are infected at a Multiciplicity of Infection (MOI) of 0.5 for 3 h and then washed twice with complete media to remove residual virus. Cells are then resuspended at 0.5×10^6/ml in complete medium (RPMI, 10% FBS, 1% sodium pyruvate), and seeded into 96-well plates (6.25×10^4/well). The cells are cultured in the presence or absence of various concentrations of test compounds in serial dilutions for 3 days at 37° C. The test compounds are serially diluted in complete medium supplemented or not with 30% human serum. After 3 days, 100 μL of cultured medium with cells are replaced with 120 μL of freshly diluted test compounds in complete medium containing or not 30% Human serum. The level of HIV-1 replication is determined at days 5 after infection by the presence of viral RT activity in harvested supernatant fluid. The IC50 and IC90 values for the virus replication are determined by using GRAPHPAD PRISM software.
The IC50 of the compounds tested in accordance with the HIV replication activity assay MT2 (HIVIIIB) are represented in Table 1.

[1] = with 30% human serum, read-out: MT2 (HIVIIIB) with HS 30% IC50 range
[2] = without human serum, read-out: MT2 (HIVIIIB) IC50 range

Row | SMILES | IC50 [1] [nM] | IC50 [2] [nM]
1 | CC(C)C1=C2[C@H]3CC[C@@H]4[C@@]5(C)CC[C@H](OC(=O)CC(C)(C)C(=O)O)C(C)(C)[C@@H]5CC[C@@]4(C)[C@]3(C)CC[C@@]2(NC(=O)NCc2ccccc2)CC1=O [17-1, 3β-O-(3′,3′-Dimethylsuccinyl)-17β[N′-(benzyl)ureido]-21-oxolup-18-ene] | < 199 | < 199
2 | CC(C)C1=C2C3CCC4[C@@]5(C)CC[C@H](OC(=O)CC(C)(C)C(=O)O)C(C)(C)C5CC[C@@]4(C)[C@]3(C)CC[C@@]2(NC(=O)NCc2ncccn2)CC1=O (stereo partly drawn) [17-67, 3β-O-(3′,3′-Dimethylsuccinyl)-17β-[N′-(pyrimidin-2-ylmethyl)ureido]-21-oxolup-18-ene] | < 199 | 
3 | CC(C)C1=C2[C@H]3CC[C@@H]4[C@@]5(C)CC[C@H](OC(=O)CC(C)(C)C(=O)O)C(C)(C)[C@@H]5CC[C@@]4(C)[C@]3(C)CC[C@@]2(NC(=O)Cc2ccc(F)cc2)CC1=O [19-9, 3β-O-(3′,3′-Dimethylsuccinyl)-17β-(4-fluorobenzyl)amido-21-oxolup-18-ene] | < 199 | < 199
4 | Cc1nnc(CNC(=O)N[C@@]23CC[C@]4(C)C(CCC5[C@@]6(C)CC[C@H](OC(=O)CC(C)(C)C(=O)O)C(C)(C)C6CC[C@]54C)C2=C(C(C)C)C(=O)C3)o1 (stereo partly drawn) [17-65, 3β-O-(3′,3′-Dimethylsuccinyl)-17β-[N′-(2-methyl-[1,3,4]oxadiazol-2-ylmethyl)-ureido]-21-oxolup-18-ene] | < 199 | 
5 | Cc1cncc(C(=O)N[C@@]23CC[C@]4(C)[C@H](CC[C@@H]5[C@@]6(C)CC[C@H](OC(=O)CC(C)(C)C(=O)O)C(C)(C)[C@@H]6CC[C@]54C)C2=C(C(C)C)C(=O)C3)c1 [19-47, 3β-O-(3′,3′-Dimethylsuccinyl)-17β-(5-methylpyridin-3-yl)amido-21-oxolup-18-ene] | < 199 | 
6 | CC(C)C1=C2C3CCC4[C@@]5(C)CC[C@H](OC(=O)CC(C)(C)C(=O)O)C(C)(C)C5CC[C@@]4(C)[C@]3(C)CC[C@@]2(NC(=O)N[C@H](C)c2ccccc2)CC1=O (stereo partly drawn) [17-62, 3β-O-(3′,3′-Dimethylsuccinyl)-17β-[N′-((R)-1-phenyl-ethyl)-ureido]-21-oxolup-18-ene] | < 199 | 
7 | CC(C)C1=C2[C@H]3CC[C@@H]4[C@@]5(C)CC[C@H](OC(=O)CC(C)(C)C(=O)O)C(C)(C)[C@@H]5CC[C@@]4(C)[C@]3(C)CC[C@@]2(NC(=O)OC(C)(C)C)CC1=O [14-1, 3β-O-(3′,3′-Dimethylsuccinyl)-17β-tert-butyloxycarbonylamino-21-oxolup-18-ene] | < 199 | < 199
8 | CC(C)C1=C2[C@H]3CC[C@@H]4[C@@]5(C)CC[C@H](OC(=O)CC(C)(C)C(=O)O)C(C)(C)[C@@H]5CC[C@@]4(C)[C@]3(C)CC[C@@]2(NC(=O)NCc2nccn2C)CC1=O [17-73, 3β-O-(3′,3′-Dimethylsuccinyl)-17β-[N′-(1-methyl-1H-imidazol-2-yl-methyl)-ureido]-21-oxolup-18-ene] | < 199 | 
9 | CC(C)C1=C2[C@H]3CC[C@@H]4[C@@]5(C)CC[C@H](OC(=O)CC(C)(C)C(=O)O)C(C)(C)[C@@H]5CC[C@@]4(C)[C@]3(C)CC[C@@]2(NC(=O)NC2CCN(C(=O)OC(C)(C)C)CC2)CC1=O [17-9, 3β-O-(3′,3′-Dimethylsuccinyl)-17β[N′-(1-tert-butyloxycarbonyl-piperidin-4-yl)-ureido]-21-oxolup-18-ene] | < 199 | 
10 | Cc1ccc(C(=O)N[C@@]23CC[C@]4(C)[C@H](CC[C@@H]5[C@@]6(C)CC[C@H](OC(=O)CC(C)(C)C(=O)O)C(C)(C)[C@@H]6CC[C@]54C)C2=C(C(C)C)C(=O)C3)cn1 [19-48, 3β-O-(3′,3′-Dimethylsuccinyl)-17β-(6-methylpyridin-3-yl)amido-21-oxolup-18-ene] | < 199 | 
11 | CC(C)C1=C2[C@H]3CC[C@@H]4[C@@]5(C)CC[C@H](OC(=O)CC(C)(C)C(=O)O)C(C)(C)[C@@H]5CC[C@@]4(C)[C@]3(C)CC[C@@]2(NC(=O)CCN2CCCC2=O)CC1=O [19-41, 3β-O-(3′,3′-Dimethylsuccinyl)-17β-[3-(2-oxo-pyrrolidin-1-yl)-propionamido]-21-oxolup-18-ene] | < 199 | 
12 | CC(C)C1=C2C3CCC4[C@@]5(C)CC[C@H](OC(=O)CC(C)(C)C(=O)O)C(C)(C)C5CC[C@@]4(C)[C@]3(C)CC[C@@]2(NC(=O)NCc2cccs2)CC1=O (stereo partly drawn) [17-64, 3β-O-(3′,3′-Dimethylsuccinyl)-17β-[N′-(thiophen-2-ylmethyl)-ureido]-21-oxolup-18-ene] | < 199 | 
13 | CC(C)C1=C2[C@H]3CC[C@@H]4[C@@]5(C)CC[C@H](OC(=O)CC(C)(C)C(=O)O)C(C)(C)[C@@H]5CC[C@@]4(C)[C@]3(C)CC[C@@]2(NC(=O)c2cnn(C)c2)CC1=O [19-35, 3β-O-(3′,3′-Dimethylsuccinyl)-17β-(1-methyl-1H-pyrazole-4-amido)-21-oxolup-18-ene] | < 199 | < 199
14 | CC(C)C1=C2[C@H]3CC[C@@H]4[C@@]5(C)CC[C@H](OC(=O)CC(C)(C)C(=O)O)C(C)(C)[C@@H]5CC[C@@]4(C)[C@]3(C)CC[C@@]2(NC(=O)C2CCNCC2)CC1=O [19-6, 3β-O-(3′,3′-Dimethylsuccinyl)-17β-(piperidine-4-amido)-21-oxolup-18-ene] | > 1000 | < 199
15 | CC(C)C1=C2C3CCC4[C@@]5(C)CC[C@H](OC(=O)CC(C)(C)C(=O)O)C(C)(C)C5CC[C@@]4(C)[C@]3(C)CC[C@@]2(NC(=O)Cc2ccccc2)CC1=O (stereo partly drawn) [19-29, 3β-O-(3′,3′-Dimethylsuccinyl)-17β-phenylacetamido-21-oxolup-18-ene] | < 199 | 
16 | CC(C)C1=C2C3CCC4[C@@]5(C)CC[C@H](OC(=O)CC(C)(C)C(=O)O)C(C)(C)C5CC[C@@]4(C)[C@]3(C)CC[C@@]2(NC(=O)NC(C)(C)c2ccccc2)CC1=O (stereo partly drawn) [17-63, 3β-O-(3′,3′-Dimethylsuccinyl)-17β-[N′-(1-methyl-1-phenyl-ethyl)-ureido]-21-oxolup-18-ene] | < 199 | 
17 | CC(C)C1=C2C3CCC4[C@@]5(C)CC[C@H](OC(=O)CC(C)(C)C(=O)O)C(C)(C)C5CC[C@@]4(C)[C@]3(C)CC[C@@]2(NC(=O)C(=O)N(C)C)CC1=O (stereo partly drawn) [19-74, 3β-O-(3′,3′-Dimethylsuccinyl)-17β-(N′,N′-dimethyl-oxalamido)-21-oxolup-18-ene] | < 199 | 
18 | Cc1nnc(NC(=O)N[C@@]23CC[C@]4(C)C(CCC5[C@@]6(C)CC[C@H](OC(=O)CC(C)(C)C(=O)O)C(C)(C)C6CC[C@]54C)C2=C(C(C)C)C(=O)C3)o1 (stereo partly drawn) [17-19, 3β-O-(3′,3′-Dimethylsuccinyl)-17β-(N′-5-methyl-[1,3,4]oxadiazol-2-yl-ureido)-21-oxolup-18-ene] | < 199 | 
19 | CC(C)C1=C2C3CCC4[C@@]5(C)CC[C@H](OC(=O)CC(C)(C)C(=O)O)C(C)(C)C5CC[C@@]4(C)[C@]3(C)CC[C@@]2(NC(=O)NCC2CC2)CC1=O (stereo partly drawn) [17-21, 3β-O-(3′,3′-Dimethylsuccinyl)-17β-(N′-cyclopropylmethyl-ureido)-21-oxolup-18-ene] | 200 to 999 | 
20 | CC(C)C(=O)N[C@@]12CC[C@]3(C)C(CCC4[C@@]5(C)CC[C@H](OC(=O)CC(C)(C)C(=O)O)C(C)(C)C5CC[C@]43C)C1=C(C(C)C)C(=O)C2 (stereo partly drawn) [19-31, 3β-O-(3′,3′-Dimethylsuccinyl)-17β-isopropylamido-21-oxolup-18-ene] | < 199 | 
21 | CC(C)C1=C2C3CCC4[C@@]5(C)CC[C@H](OC(=O)CC(C)(C)C(=O)O)C(C)(C)C5CC[C@@]4(C)[C@]3(C)CC[C@@]2(NC(=O)c2nnc(C(C)C)o2)CC1=O (stereo partly drawn) [19-84, 3β-O-(3′,3′-Dimethylsuccinyl)-17β-(5-isopropyl-[1,3,4]-oxadiazole-2-amido)-21-oxolup-18-ene] | < 199 | 
22 | CC(C)C1=C2[C@H]3CC[C@@H]4[C@@]5(C)CC[C@H](OC(=O)CC(C)(C)C(=O)O)C(C)(C)C5CC[C@@]4(C)[C@]3(C)CC[C@@]2(NC(=O)Nc2cnn(C)c2)CC1=O (stereo partly drawn) [17-37, 3β-O-(3′,3′-Dimethylsuccinyl)-17β-[N′-(1-methyl-1H-pyrazol-4-yl)ureido]-21-oxolup-18-ene] | < 199 | 
23 | CC(C)C1=C2[C@H]3CC[C@@H]4[C@@]5(C)CC[C@H](OC(=O)CC(C)(C)C(=O)O)C(C)(C)[C@@H]5CC[C@@]4(C)[C@]3(C)CC[C@@]2(NS(C)(=O)=O)CC1=O [18-1, 3β-O-(3′,3′-Dimethylsuccinyl)-17β-methylsulfonylamino-21-oxolup-18-ene] | < 199 | < 199
24 | CC(C)C1=C2[C@H]3CC[C@@H]4[C@@]5(C)CC[C@H](OC(=O)CC(C)(C)C(=O)O)C(C)(C)[C@@H]5CC[C@@]4(C)[C@]3(C)CC[C@@]2(NC(=O)CC(C)(C)C(=O)O)CC1=O [19-3, 3β-O,17β-N-bis(3′,3′-dimethylsuccinyl)-21-oxolup-18-ene] |  | < 199
25 | CC(C)C1=C2[C@H]3CC[C@@H]4[C@@]5(C)CC[C@H](OC(=O)CC(C)(C)C(=O)O)C(C)(C)[C@@H]5CC[C@@]4(C)[C@]3(C)CC[C@@]2(NC(=O)Nc2ccncc2)CC1=O [17-26, 3β-O-(3′,3′-Dimethylsuccinyl)-17β-(N′-pyridin-4-yl-ureido)-21-oxolup-18-ene] | < 199 | 
26 | CC(C)C1=C2C3CCC4[C@@]5(C)CC[C@H](OC(=O)CC(C)(C)C(=O)O)C(C)(C)C5CC[C@@]4(C)[C@]3(C)CC[C@@]2(NC(=O)NC2(c3ccccn3)CC2)CC1=O (stereo partly drawn) [17-69, 3β-O-(3′,3′-Dimethylsuccinyl)-17β-[N′-(1-pyridin-2-yl-cyclopropyl)-ureido]-21-oxolup-18-ene] | < 199 | 
